Where “and” joins values, the source holds several entries; their conditions need not be identical. Equal entries are not always repeated.
What was measured:
[1] = test system: T1, Plasmodium falciparum Dd2-attB (parental line), asexual blood stages; assay: microbe, parasite or virus in culture; parameters: replicate k of 3 (each line is one of three independent assays; the three lines of one compound and parasite line follow each other); settings: n = 1; for Individual replicates / Log AC50 (M): 72 h; for AC50: Plasmodium falciparum, DD2, 72 h, read-out: Individual replicates / Log AC50 (converted)
T1 construct: Dd2-attB, the isogenic parental line
In short: (§1)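 Both lines were tested side by side with selected compounds, repeated in three independent assays. Differences between parental and ScDHODH-expressing parasites were then assessed with a two-sided Student's t-test.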

[2] = test system: T2, Plasmodium falciparum Dd2-attB-ScDHODH (transgenic line expressing yeast DHODH), asexual blood stages; assay: organism not typed; parameters: replicate k of 3 (each line is one of three independent assays; the three lines of one compound and parasite line follow each other); settings: 72 h, n = 1; for AC50: read-out: Individual replicates / Log AC50 (converted)
T2 construct: Dd2-attB-ScDHODH, the transgenic line that expresses yeast DHODH
In short: as §1

## O=C(O)c1ccnc(-n2ncc(C(OCCN3CCCCC3)c3cccc(-c4ccccc4)c3)c2-c2cccc(-c3ccccc3)c2)c1 (stereo not drawn) [NCGC00487052-01]
[1]
  Individual replicates / Log AC50 (M): -5.3986 Log AC50 (M)
  AC50: 4.48 µM
[2]
  Individual replicates / Log AC50 (M): -5.4986 Log AC50 (M) and -5.2986 Log AC50 (M) (2×)

## O=C(O)c1ccc(O)c2ncc(N3CCCN(CCCc4ccncc4)CC3)cc12 [NCGC00247752-01]
[1]
  Individual replicates / Log AC50 (M): -4.7486 Log AC50 (M)
  AC50: 12.6 µM
[2]
  Individual replicates / Log AC50 (M): -4.7986 Log AC50 (M) and -4.7486 Log AC50 (M)
  AC50: 17.8 µM

## Cc1cccc(CN2CCCn3nc(C)c(-c4ccccc4Oc4ccccc4)c32)n1 [NCGC00499720-01]
[1]
  Individual replicates / Log AC50 (M): -4.7486 Log AC50 (M)
  AC50: 20 µM
[2]
  Individual replicates / Log AC50 (M): -4.7986 Log AC50 (M)
  AC50: 15.9 µM

## Oc1cc(-c2ccc(CN3CCOCC3)c(F)c2)cc2cccnc12 [NCGC00247756-01]
[1]
  Individual replicates / Log AC50 (M): -5.2986 Log AC50 (M)
  AC50: 5.03 µM
[2]
  Individual replicates / Log AC50 (M): -5.2986 Log AC50 (M) and -5.2486 Log AC50 (M)
  AC50: 5.03 µM

## O=C(O)c1ccc(N(CCN2CCC(F)(F)CC2)c2ccc(F)cc2)cn1 [NCGC00390011-01]
[1]
  Individual replicates / Log AC50 (M): -4.7486 Log AC50 (M)
  AC50: 20 µM
[2]
  AC50: 17.8 µM

## COC(=O)c1ccc(O)c2ncc(N3CCOCC3)cc12 [NCGC00262492-01]
[1]
  Individual replicates / Log AC50 (M): -5.3486 Log AC50 (M) and -5.3986 Log AC50 (M)
  AC50: 5.64 µM
[2]
  Individual replicates / Log AC50 (M): -5.2986 Log AC50 (M)
  AC50: 5.64 µM

## Cc1cc(C)nc(NCc2ccc(O)c3ncccc23)c1 [NCGC00241026-01]
[1]
  Individual replicates / Log AC50 (M): -4.7986 Log AC50 (M)
  AC50: 17.8 µM
[2]
  Individual replicates / Log AC50 (M): -4.8986 Log AC50 (M)
  AC50: 20 µM

## Oc1ccc(CNc2cccc(C(F)(F)F)c2)c2cccnc12 [NCGC00177833-02]
[1]
  AC50: 17.8 µM
[2]
  Individual replicates / Log AC50 (M): -4.7486 Log AC50 (M)
  AC50: 15.9 µM

## COC(=O)c1ccnc2cc(C(OCCC3CCCN3C)c3ccccc3Cl)[nH]c12 (stereo not drawn) [NCGC00479019-01]
[1]
  Individual replicates / Log AC50 (M): -5.1986 Log AC50 (M) and -5.1486 Log AC50 (M)
  AC50: 5.03 µM
[2]
  Individual replicates / Log AC50 (M): -5.2986 Log AC50 (M) and -5.1486 Log AC50 (M)
  AC50: 7.1 µM

## Cc1nn2c(c1-c1ccccc1-c1ccccc1)N(Cc1cccc(C#N)c1)CCC2 [NCGC00499314-01]
[1]
  Individual replicates / Log AC50 (M): -5.1486 Log AC50 (M) and -5.0486 Log AC50 (M)
  AC50: 8.94 µM
[2]
  Individual replicates / Log AC50 (M): -4.9986 Log AC50 (M) and -5.0986 Log AC50 (M)
  AC50: 10 µM

## Oc1ccc(Oc2ccccc2F)c2cccnc12 [NCGC00184907-01]
[1]
  Individual replicates / Log AC50 (M): -4.9986 Log AC50 (M) and -5.0486 Log AC50 (M)
  AC50: 8.94 µM
[2]
  Individual replicates / Log AC50 (M): -4.8986 Log AC50 (M) and -4.9486 Log AC50 (M)
  AC50: 14.2 µM

## Oc1ccc(CNc2ccc3ccccc3n2)c2cccnc12 [NCGC00241029-01]
[1]
  Individual replicates / Log AC50 (M): -4.8986 Log AC50 (M) and -5.0486 Log AC50 (M)
  AC50: 7.1 µM
[2]
  Individual replicates / Log AC50 (M): -4.8986 Log AC50 (M)
  AC50: 7.1 µM

## CN(C)c1cnc2c(O)ccc(C(=O)O)c2c1 [NCGC00189499-01]
[1]
  Individual replicates / Log AC50 (M): -4.7486 Log AC50 (M)
  AC50: 14.2 µM
[2]
  Individual replicates / Log AC50 (M): -4.9486 Log AC50 (M)
  AC50: 14.2 µM

## CC(c1ccccc1)N1CCN(c2cnc3c(O)ccc(C(=O)O)c3c2)CC1 (stereo not drawn) [NCGC00247745-01]
[1]
  Individual replicates / Log AC50 (M): -4.8486 Log AC50 (M) and -4.7486 Log AC50 (M)
  AC50: 15.9 µM
[2]
  Individual replicates / Log AC50 (M): -4.7986 Log AC50 (M) and -4.7486 Log AC50 (M)
  AC50: 17.8 µM

## Oc1ccc(CNc2ccccc2Cl)c2cccnc12 [NCGC00184891-01]
[1]
  Individual replicates / Log AC50 (M): -4.6986 Log AC50 (M)
  AC50: 15.9 µM
[2]
  Individual replicates / Log AC50 (M): -4.7486 Log AC50 (M)
  AC50: 14.2 µM

## Cc1nn2c(c1-c1ccccc1-c1ccccc1)N(CCCc1ccccc1)CCC2 [NCGC00500005-01]
[1]
  Individual replicates / Log AC50 (M): -5.0486 Log AC50 (M)
  AC50: 7.97 µM
[2]
  Individual replicates / Log AC50 (M): -5.0486 Log AC50 (M) and -4.8986 Log AC50 (M)
  AC50: 8.94 µM

## CC(C)c1ccc(Nc2c(-c3ccccn3)nc3ccccn23)cc1 [NCGC00104490-03]
[1]
  Individual replicates / Log AC50 (M): -5.1986 Log AC50 (M) and -5.1486 Log AC50 (M)
  AC50: 5.64 µM
[2]
  Individual replicates / Log AC50 (M): -5.0986 Log AC50 (M)
  AC50: 5.64 µM

## O=C(O)c1ccnc2cc(C(OCCCN3CCCCC3)c3ccccc3Cl)[nH]c12 (stereo not drawn) [NCGC00421948-01]
[1]
  Individual replicates / Log AC50 (M): -4.9486 Log AC50 (M)
  AC50: 7.97 µM
[2]
  AC50: 5.03 µM

## COC(=O)c1ccnc2sc(N(CCCN3CCCCC3)c3ccccc3Cl)nc12 [NCGC00480953-01]
[1]
  Individual replicates / Log AC50 (M): -5.2486 Log AC50 (M) and -5.3486 Log AC50 (M)
  AC50: 4.48 µM
[2]
  Individual replicates / Log AC50 (M): -5.0986 Log AC50 (M)
  AC50: 4.48 µM
